The values below come from patent US7229646B2, “Methods and compositions for modulating immune response and for the treatment of inflammatory disease” (Foodscience Corporation, priority 1999, dated 2007).

In one assay the test system is CD8^+ T cells. The assay is described as follows: Spleen lymphocyte populations by flow cytometry, CD8+ T cells. It is filed as in vivo, MRI-lpr mice. The conditions noted are these: flow cytometry after twelve weeks (FIG. 3). On the technique in general: A flow cytometer gives signals particle by particle.
A further assay deals with CD19^+ B cell. Nature of the assay: Spleen lymphocyte populations by flow cytometry, CD19+ B cells. It is filed as in vivo, MRI-lpr mice. The conditions noted are these: flow cytometry after twelve weeks (FIG. 3).
In another assay the test system is il-6. The assay is described as follows: Serum cytokine ELISA, il-6. It is filed as in vivo, MRI-lpr mice. The conditions noted are these: ELISA (FIG. 2). Background: In an ELISA, binding on a coated surface is turned into a signal by an enzyme label.
A further assay concerns il-10. Nature of the assay: Serum cytokine ELISA, il-10. The class given is in vivo, MRI-lpr mice. The conditions noted are these: ELISA (FIG. 2).
Another assay has as its system anti-ssDNA antibody. The assay is described as follows: Serum anti-ssDNA antibody ELISA. It is filed as in vivo, MRI-lpr mice. The conditions noted are these: time course to 11th week; versus control (FIG. 5).
In assay [1] the test system is humoral and cellular immunity. The conditions noted are these: Graber et al., 1981; cited from earlier work.
In the next assay the test system is lactic acid levels. The conditions noted are these: animals under extreme stress; cited from earlier work.
The subject of assay [2] is B-cells, T cells and macrophages. Particulars: in humans; cited from earlier work.

Description for CD19^+ B cell: (§1) MRI-lpr mice were used to study the effects of a combination of DMG and PCE on components of the immune system and on the progression of the SLE disease. Forty MRI-lpr mice were divided into four groups of ten mice each: a control group, a PCE treated group, a DMG treated group, and a PCE-DMG treated group. The control group was given standard mouse chow and water. […] The PCE group was given a PCE-mouse chow mix and water. The PCE-DMG combination group was given a PCE-mouse chow mix and DMG water. […] The mice were given food and water ad libitum. It is estimated that the mice, with a size range of 30–50 grams, consumed about 1–3 mg/day of DMG and 2–6 mg/day of PCE. The mice were weighed weekly and 100 ul of blood was collected via orbital bleed on a weekly basis. The collected blood was centrifuged and the serum was recovered and stored at −20° C. for analysis at the end of the twelve week experiment. After twelve weeks, the mice were sacrificed and the spleens, kidneys, and livers were harvested. […] The spleens were processed and the cells recovered were quantified by flow cytometry using fluorescent anti-CD4, anti-CD8 and anti-CD19 antibodies (Pharmingen, San Diego, Calif.). Cytokine levels in the serum and anti-single stranded and double stranded DNA antibody levels in the serum were determined using an enzyme linked immunosorbent assay (ELISA).
Description for CD8^+ T cells: as §1
Description for anti-ssDNA antibody: as §1
Description for il-10: as §1
Description for il-6: as §1

Take `CN(C)CC(=O)O` [DMG, N,N-dimethylglycine]: in the assay with CD8^+ T cells, the “CD8^+ T cells” value is on record as “No effect”. In addition, in the assay on CD19^+ B cell, the “CD19^+ B cell percentages” value was “No effect”. In the assay with il-6, the “levels of serum il-6” value was “significantly lower levels of il-6 than control animals”. In addition, the “levels of serum il-10” value in the assay with il-10 is listed as “higher levels of IL-10 than in controls”. In addition, the “anti-ssDNA antibody levels in the serum” value in the assay on anti-ssDNA antibody was “appeared to be leveling out”. The “effect on humoral and cellular immunity” value in assay [1] is “stimulation of both humoral and cellular immunity”. Further, in the assay with lactic acid levels, the lactic acid levels result was “decreased lactic acid levels” and the oxygen utilization result was “increased oxygen utilization”. In addition, in assay [2], the B-cell antibody responses entry was “much higher antibody responses”; the “activity of T cells and macrophages” value is “enhanced”.
